From publication PMC12596500, “Affinity-selected peptide ligands specifically bind i-motif DNA and modulate c-Myc gene expression” (Nucleic Acids Research, 2025) come the findings set out here.

Molecules are shown by their SMILES. Where two headings read alike, the source gives them in different places. Peptide text beside a SMILES is read from it.

Data set [1] concerns c-MycC52. The settings on record: 10 µM DNA; for TM c-MycC52, first (lower) transition / TM c-MycC52, second (higher) transition: 10 mM NaCaco pH 6.6, 10 molar eqv. peptide, mean ± SEM (n=4); for ΔTM c-MycC52, transition at lower temperatures / ΔTM c-MycC52, second transition at higher temperatures: 10 mM sodium cacodylate pH 6.6, 10 molar equivalents peptide vs DMSO, mean ± SEM (n = 4). On the procedure: (§1) Circular Dichroism (CD) melting experiments were performed in a Jasco J-1500 spectropolarimeter with 10 µM DNA samples in 10 mM sodium cacodylate buffer at pH 6.6 using a 1 mm path length quartz cuvette. […] The samples were kept at 5°C for 5 min before starting the melt, with a temperature increase of 1°C/min, a 0.5°C data interval, and a 60-s holding time at each target temperature. Four scans were accumulated data pitch of 0.5 nm, a scanning speed of 200 nm/min, 1 s response time, 2 nm bandwidth, and 200 mdeg sensitivity. Furthermore, two CD melting experiment repeats were performed recording C-rich c-Myc at 288 and 320 nm, G-rich c-Myc at 264 and 320 nm, and dsDNA at 253 and 320 nm with the settings as described for full spectrum measurements. Data were zero corrected to 320 nm and baseline drift. The melting temperature (TM) was concluded using the Boltzmann or biphasic fitting curve on the folded fraction data using GraphPad Prism version 10.1.2. Data were processed as mean ± SEM (n = 4) and one-way ANOVA followed by Bonferroni post-hoc test to determine significant changes between peptides and controls.

For data set [2], the system named is c-MycG52. The settings on record: 10 µM DNA; for TM c-MycG52: 10 mM NaCaco pH 6.6, 10 molar eqv. peptide, mean ± SEM (n=4); for ΔTM c-MycG52: 10 mM sodium cacodylate pH 6.6, 10 molar equivalents peptide vs DMSO, mean ± SEM (n = 4). On the procedure:
as §1

A short description of data set [3]: Solubility and aggregation state seen by NMR. The class given is physicochemical. The settings on record: one equivalent of peptide to 50 µM c-MycC52, 10 mM sodium cacodylate pH 6.6, 10% D2O, 283 K, read-out 1H NMR. On the procedure: (§2) NMR: ^1H NMR spectra of c-MycC52 were recorded at 283 K using a Bruker Avance NEO 600 MHz spectrometer equipped with QCI-F cryoprobe operating Topspin 4.5.0. Spectra were recorded with excitation sculpting, at 27.75 ppm spectral width, 1 s acquisition time, and 1 s recycle delay. Spectra of the imino proton region were acquired with a 1D SOFAST excitation scheme with a 1293 μs Pc9_4_120 excitation pulse and 720 μs Reburp refocusing pulse, centred at 13 ppm, a 29.75 ppm spectral width, 115 ms acquisition time, and 100 ms recycle delay. Samples were annealed at a final concentration of 50 µM in 10 mM sodium cacodylate (pH 6.6). 10% D2O and 0.01% sodium trimethylsilylpropanesulfonate (DSS) were added immediately before recording NMR spectra experiments. Spectra were processed with exponential line broadening and referenced to the Sodium trimethylsilylpropanesulfonate (DSS) chemical shift. The chemical shift of the cacodylate buffer resonance was used to monitor potential pH changes between samples.
(§3) Given the selectivity of the Pep-PTN and Pep-VSE peptides for the c-Myc iM structure, both in the binding experiments and also the in vitro gene assays, we considered potential binding modes. We recorded NMR spectra of the c-MycC52 oligonucleotide in the presence and absence of Pep-VSE to give insights into potential binding sites (Supplementary Figs S17–S20). […]

Data set [4] has as its system c-MycC52. The data set is described as follows: 1H NMR of c-MycC52 with peptide. The class given is binding. The settings on record: 50 µM c-MycC52, one equivalent of peptide, 10 mM sodium cacodylate pH 6.6, 10% D2O, 283 K, 600 MHz. On the procedure:
as §2, §3

In the case of `CC(=O)N1CCC[C@H]1C(=O)N[C@H](C(=O)N[C@@H](CC(N)=O)C(=O)N[C@H](C(=O)N[C@@H](CO)C(=O)NCC(=O)N[C@@H](CCCNC(=N)N)C(=O)N[C@@H](CC(N)=O)C(=O)N[C@@H](Cc1ccc(O)cc1)C(=O)N[C@@H](CC(C)C)C(=O)N[C@@H](Cc1ccccc1)C(=O)N[C@@H](CS)C(N)=O)C(C)C)[C@@H](C)O` [Pep-PTN] (Ac-PTNVSGRNYLFC-NH2), in data set [1] (SEM), the “TM c-MycC52, first (lower) transition” value was determined as 32 ± 2.0 °C; the “TM c-MycC52, second (higher) transition” value came out at 79 ± 0.8 °C; the “ΔTM c-MycC52, second transition at higher temperatures” value was −2 ± 0.3 °C; the “ΔTM c-MycC52, transition at lower temperatures” value is −1 ± 0.5 °C. Moreover, the “ΔTM c-MycC52, transition at lower temperatures” value in data set [1] is listed as “no significant change”. The “decrease in TM of the more stable iM population of c-MycC52” value in data set [1] (pH 6.6, 10 molar equivalents peptide, given as a decrease, without sign) came out at 2 ± 0.3 °C. Also, in data set [2], the “TM c-MycG52” value was 45 ± 1.0 °C and the “ΔTM c-MycG52” value is “+2 ± 0.3 °C”.

As for `CC(=O)N[C@H](C(=O)N[C@@H](CO)C(=O)N[C@@H](CCC(=O)O)C(=O)N[C@@H](C)C(=O)N[C@@H](Cc1c[nH]c2ccccc12)C(=O)N[C@@H](CCCCN)C(=O)N[C@@H](CCC(=O)O)C(=O)N[C@H](C(=O)N[C@@H](CCCCN)C(=O)NCC(=O)N[C@@H](Cc1ccccc1)C(=O)N[C@@H](Cc1ccccc1)C(N)=O)C(C)C)C(C)C` [Pep-VSE] (Ac-VSEAWKEVKGFF-NH2), in data set [1] (SEM), the “TM c-MycC52, first (lower) transition” value worked out at 33 ± 0.9 °C; the “TM c-MycC52, second (higher) transition” value came out at 74 ± 0.7 °C; the “ΔTM c-MycC52, second transition at higher temperatures” value is −14 ± 0.5 °C; the “ΔTM c-MycC52, transition at lower temperatures” value is −3 ± 0.2 °C. Moreover, in data set [2], the “TM c-MycG52” value was 48 ± 1.0 °C and the “ΔTM c-MycG52” value was “+4 ± 0.1 °C”. Further, in data set [3], the “solubility and aggregation state of the peptide (NMR)” value is “soluble and not aggregated”. The “effect on imino resonances of c-MycC52 (NMR)” value in data set [4] is “no perturbations to imino resonances”.
